Assay results published in patent US8133913B2, “Substituted indeno [1,2-b]indole derivatives as novel inhibitors of protein kinase CK2 and their use as tumor therapeutic agents, cytostatics and diagnostic aids” (Heinrich-Heine Universitat Dusseldof, priority 2006, dated 2012).
Where two headings read alike, the source gives them in different places.

How the values were obtained:
5637 = experiment: Proliferation of tumor cell lines (Bracht et al.); assay type: cell-based; conditions: for activity at 20 µM: 5637, tested at 20 μM, read-out: T/C (%) Mean
SISO = experiment: Proliferation of tumor cell lines (Bracht et al.); assay type: cell-based; conditions: for activity at 20 µM: tested at 20 μM, read-out: T/C (%) Mean
KYSE-70 = experiment: Proliferation of tumor cell lines (Bracht et al.); assay type: cell-based; conditions: Homo sapiens; for activity at 20 µM: KYSE-70, tested at 20 μM, read-out: T/C (%) Mean
CDK2/CycA = target: T1, CDK2/CycA (Homo sapiens, UniProt P24941); experiment: Radiometric protein kinase assay (33PanQinase Activity Assay); assay type: biochemical
T1 construct: made in house; host or cells: Sf9 insect cells, baculovirus
Text: (§1) AKTI1, ARK5, Aurora-A, Aurora-B, B-RAF-VE, CDK2/CycA, CDK4/CycD1, CK2-alpha1 (catalytic subunit of CK2), EGF-R, EPHB4, ERBB2, FAK, IGF1-R, SRC, VEGF-R2, VEGF-R3, FLT3, INS-R, MET, PDGFR-beta, PLK1, SAK, TIE2, COT.
(§2) All the protein kinases were expressed in Sf9 insect cells as human recombinant GST fusion proteins or His-tagged proteins by the baculovirus expression system. Kinases were purified by affinity chromatography either by GSH-agarose (Sigma) or Ni—NTH-agarose (Qiagen). The purity of the kinases was tested by SDS-PAGE/silver staining, and the identity of the kinases was verified by Western blot analysis with specific antibodies or mass spectroscopy.
(§3) A radiometric protein kinase assay (33PanQinase® Activity Assay) was used to measure the kinase activity for the 24 protein kinases. The kinase assays were carried out in 96-well FlashPlates™ from Perkin Elmer/NEN (Boston, Mass., USA) in a reaction volume of 50 μl. The reaction mixture was pipetted in 4 steps in the following sequence: • 20 μl of assay buffer • 5 μl of ATP solution (in H2O) • 5 μl of test compound (in 10% DMSO) • 10 μl of substrate/10 μl of enzyme solution (premixed)
(§4) The assays for all the enzymes contained 60 mM HEPES-NaOH, pH 7.5, 3 mM MgCl2, 3 mM MnCl2, 3 μM Na orthovanadate, 1.2 mM DTT, 50 μg/ml PEG20000, 1 μM [γ-^33P]-ATP (about 5×10^5 cpm per well).
(§5) The reaction mixture was incubated at 30° C. for 80 minutes. The reaction was stopped with 50 μl of 2% (v/v) H3PO4. The plates were aspirated and washed twice with 200 μl of 0.9% (w/v) NaCl. The incorporation of ^33Pi was determined using a microtiter plates scintillation counter (Microbeta Trilux, Wallac).

CDK4/CycD1 = target: T2, CDK4/CycD1 (Homo sapiens, UniProt P11802); experiment: as above; assay type: biochemical
T2 construct: made in house; host or cells: Sf9 insect cells, baculovirus
T2 sequence (P11802 whole entry): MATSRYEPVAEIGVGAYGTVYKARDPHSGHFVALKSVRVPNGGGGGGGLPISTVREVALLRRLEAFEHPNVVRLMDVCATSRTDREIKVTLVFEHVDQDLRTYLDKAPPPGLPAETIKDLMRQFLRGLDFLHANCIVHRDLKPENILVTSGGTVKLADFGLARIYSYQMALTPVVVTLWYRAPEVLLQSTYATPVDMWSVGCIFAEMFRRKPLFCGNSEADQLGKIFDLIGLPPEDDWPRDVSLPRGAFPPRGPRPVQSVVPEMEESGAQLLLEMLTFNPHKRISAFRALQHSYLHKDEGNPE
T2 sequence (P24385 whole entry partner): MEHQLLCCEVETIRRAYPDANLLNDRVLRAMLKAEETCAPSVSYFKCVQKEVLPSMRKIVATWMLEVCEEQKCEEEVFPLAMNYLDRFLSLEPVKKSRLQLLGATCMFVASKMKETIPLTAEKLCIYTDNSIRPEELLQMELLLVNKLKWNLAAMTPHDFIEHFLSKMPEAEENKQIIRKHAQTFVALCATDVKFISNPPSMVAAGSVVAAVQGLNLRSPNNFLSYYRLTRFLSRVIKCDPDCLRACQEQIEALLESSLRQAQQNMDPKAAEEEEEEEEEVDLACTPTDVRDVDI
Text: as §1, §2, §3, §4, §5

FLT3 = target: T3, FLT3 (Homo sapiens, UniProt P36888); experiment: as above; assay type: biochemical
T3 construct: made in house; host or cells: Sf9 insect cells, baculovirus
T3 sequence (P36888 27-993): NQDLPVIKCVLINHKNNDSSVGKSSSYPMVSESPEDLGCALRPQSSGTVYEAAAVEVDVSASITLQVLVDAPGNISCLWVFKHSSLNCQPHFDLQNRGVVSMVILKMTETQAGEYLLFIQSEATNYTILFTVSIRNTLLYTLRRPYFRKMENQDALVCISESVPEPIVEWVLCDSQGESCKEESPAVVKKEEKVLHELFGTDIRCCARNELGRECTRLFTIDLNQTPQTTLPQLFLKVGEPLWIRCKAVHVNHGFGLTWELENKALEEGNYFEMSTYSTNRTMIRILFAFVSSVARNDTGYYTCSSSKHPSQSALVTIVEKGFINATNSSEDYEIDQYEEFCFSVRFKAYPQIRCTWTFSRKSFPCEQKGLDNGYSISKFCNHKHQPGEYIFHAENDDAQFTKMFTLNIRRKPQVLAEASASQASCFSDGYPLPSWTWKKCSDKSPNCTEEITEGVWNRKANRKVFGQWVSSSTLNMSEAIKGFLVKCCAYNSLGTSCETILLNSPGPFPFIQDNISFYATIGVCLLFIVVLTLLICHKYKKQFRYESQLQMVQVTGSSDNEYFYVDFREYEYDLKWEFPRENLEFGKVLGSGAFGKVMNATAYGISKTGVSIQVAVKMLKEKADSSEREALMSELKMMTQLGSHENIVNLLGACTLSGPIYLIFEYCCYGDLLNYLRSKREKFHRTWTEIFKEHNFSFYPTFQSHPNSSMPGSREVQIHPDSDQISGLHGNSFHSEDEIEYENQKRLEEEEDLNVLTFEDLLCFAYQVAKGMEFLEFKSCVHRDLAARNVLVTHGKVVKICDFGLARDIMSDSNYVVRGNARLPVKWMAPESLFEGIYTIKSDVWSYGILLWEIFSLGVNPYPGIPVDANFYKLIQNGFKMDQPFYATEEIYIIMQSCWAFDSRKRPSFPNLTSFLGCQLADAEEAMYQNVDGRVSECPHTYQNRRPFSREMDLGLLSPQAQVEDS
Text: as §1, §2, §3, §4, §5

IGF1-R = target: T4, IGF1-R (Homo sapiens, UniProt P08069); experiment: as above; assay type: biochemical
T4 construct: made in house; host or cells: Sf9 insect cells, baculovirus
T4 sequence (P08069 31-1367): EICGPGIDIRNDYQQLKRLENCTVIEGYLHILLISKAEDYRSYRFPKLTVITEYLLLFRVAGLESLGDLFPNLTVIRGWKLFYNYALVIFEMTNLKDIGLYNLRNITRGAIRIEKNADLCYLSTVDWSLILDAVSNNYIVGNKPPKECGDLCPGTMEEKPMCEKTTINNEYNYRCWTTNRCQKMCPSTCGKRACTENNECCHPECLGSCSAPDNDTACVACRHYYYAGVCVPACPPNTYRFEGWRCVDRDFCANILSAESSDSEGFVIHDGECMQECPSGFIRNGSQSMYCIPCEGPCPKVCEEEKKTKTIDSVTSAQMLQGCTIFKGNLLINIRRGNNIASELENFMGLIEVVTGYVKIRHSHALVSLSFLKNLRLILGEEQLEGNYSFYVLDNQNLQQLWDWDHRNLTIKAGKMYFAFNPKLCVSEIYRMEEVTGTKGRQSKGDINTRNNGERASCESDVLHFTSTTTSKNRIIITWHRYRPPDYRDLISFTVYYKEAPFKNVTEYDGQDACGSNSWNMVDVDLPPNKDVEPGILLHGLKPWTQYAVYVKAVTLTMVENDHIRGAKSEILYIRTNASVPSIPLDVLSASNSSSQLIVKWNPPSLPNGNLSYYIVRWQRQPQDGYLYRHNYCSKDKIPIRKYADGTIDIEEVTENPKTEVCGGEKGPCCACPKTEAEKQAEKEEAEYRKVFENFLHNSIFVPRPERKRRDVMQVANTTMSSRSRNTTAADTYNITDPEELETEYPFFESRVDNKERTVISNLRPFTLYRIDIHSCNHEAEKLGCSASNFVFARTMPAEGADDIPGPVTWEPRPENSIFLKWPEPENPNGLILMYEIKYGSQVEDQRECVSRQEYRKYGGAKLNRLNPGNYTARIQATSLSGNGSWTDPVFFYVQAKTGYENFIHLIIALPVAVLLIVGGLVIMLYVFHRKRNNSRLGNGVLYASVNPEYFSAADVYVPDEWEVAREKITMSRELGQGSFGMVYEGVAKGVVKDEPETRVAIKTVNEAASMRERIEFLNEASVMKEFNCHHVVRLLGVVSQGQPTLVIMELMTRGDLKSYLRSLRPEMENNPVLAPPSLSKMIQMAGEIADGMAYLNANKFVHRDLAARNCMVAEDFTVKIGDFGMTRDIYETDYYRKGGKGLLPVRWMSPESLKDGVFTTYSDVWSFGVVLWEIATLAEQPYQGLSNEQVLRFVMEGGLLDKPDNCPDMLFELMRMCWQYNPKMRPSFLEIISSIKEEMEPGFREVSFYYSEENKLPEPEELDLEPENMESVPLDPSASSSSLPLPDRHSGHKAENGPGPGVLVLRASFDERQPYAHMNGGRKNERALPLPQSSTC
Text: as §1, §2, §3, §4, §5

PLK1 = target: T5, PLK1 (Homo sapiens, UniProt P53350); experiment: as above; assay type: biochemical
T5 construct: made in house; host or cells: Sf9 insect cells, baculovirus
T5 sequence (P53350 whole entry): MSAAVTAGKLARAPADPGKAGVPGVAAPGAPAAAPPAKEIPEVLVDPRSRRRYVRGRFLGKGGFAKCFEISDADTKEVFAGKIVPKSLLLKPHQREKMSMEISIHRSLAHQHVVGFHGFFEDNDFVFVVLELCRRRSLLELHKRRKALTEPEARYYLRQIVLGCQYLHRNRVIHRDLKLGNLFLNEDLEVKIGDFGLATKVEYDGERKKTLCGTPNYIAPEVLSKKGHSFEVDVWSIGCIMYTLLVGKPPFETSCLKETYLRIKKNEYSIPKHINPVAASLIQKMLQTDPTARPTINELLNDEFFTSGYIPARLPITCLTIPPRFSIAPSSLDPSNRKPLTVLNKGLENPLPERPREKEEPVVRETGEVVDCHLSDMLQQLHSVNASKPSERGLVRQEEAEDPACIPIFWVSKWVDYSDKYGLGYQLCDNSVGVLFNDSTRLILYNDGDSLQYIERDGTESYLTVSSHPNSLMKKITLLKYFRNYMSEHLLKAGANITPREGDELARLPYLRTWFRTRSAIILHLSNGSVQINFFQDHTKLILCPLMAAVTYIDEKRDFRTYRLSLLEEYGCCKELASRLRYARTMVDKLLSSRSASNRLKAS
Text: as §1, §2, §3, §4, §5

[1] = 1 μM ATP, read-out: IC50 values [μM] CDK2/CycA
[2] = 1 μM ATP, read-out: IC50 values [μM] CDK4/CycD1
[3] = 1 μM ATP, read-out: IC50 values [μM] FLT3
[4] = 1 μM ATP, read-out: IC50 values [μM] IGF1-R
[5] = 1 μM ATP, read-out: IC50 values [μM] PLK1

| IC50 (5637; 5637, read-out: IC50 (μM) Mean, inhibition of cell proliferation) | IC50 (SISO; read-out: IC50 (μM) Mean, inhibition of cell proliferation) | IC50 (KYSE-70; KYSE-70, read-out: IC50 (μM) Mean, inhibition of cell proliferation) | SMILES | activity at 20 µM 5637 | activity at 20 µM (SISO) | activity at 20 µM (KYSE-70) | IC50 (CDK2/CycA; [1]) | IC50 (CDK4/CycD1; [2]) | IC50 (FLT3; [3]) | IC50 (IGF1-R; [4]) | IC50 (PLK1; [5]) | IC50 (CDK2/CycA) | IC50 (CDK4/CycD1) | IC50 (FLT3) | IC50 (IGF1-R) | IC50 (PLK1) |
| --- | --- | --- | --- | --- | --- | --- | --- | --- | --- | --- | --- | --- | --- | --- | --- | --- |
| 2.75 µM | 2.82 µM | 2.83 µM | O=c1ccc(=O)c2c1c1c(=O)c3ccccc3c1n2Cc1ccccc1 [Compound 6c, 5-Benzyl 5,6,9,10-tetrahydroindeno[1,2-b]indole-6,9,10-trione] | 0.44% | 5.3% | 12.1% | > 10 µM | 7.6 µM | 9.2 µM | 2.5 µM | > 10 µM | – | – | – | – | – |
| – | – | – | CC(C)n1c2c(c3c1-c1ccccc1C3=O)C(=O)CCC2 [Compound 4b, 5-Isopropyl-5,6,7,8-tetrahydroindeno[1,2-b]indole-9,10-dione] | 99% | 100% | 74.9% | – | – | – | – | – | > 10 µM | > 10 µM | > 10 µM | > 10 µM | > 10 µM |
| – | – | – | CC(C)n1c2c(=O)ccc(=O)c2c2c(=O)c3ccccc3c21 [Compound 6b, 5-Isopropyl-5H-indeno[1,2-b]indole-6,9,10-trione] | -1.73% | 0.28% | 1.26% | > 10 µM | > 10 µM | 0.051 µM | 2.9 µM | > 10 µM | – | – | – | – | – |
